Test results published in patent publication US11000033B2, “Ketone or oxime compound, and herbicide” (NISSAN CHEMICAL CORPORATION, priority 2014, dated 2021).

Legend:
Type in all cases: in vivo
rapeseed = experiment: Test Example 5: effect on crop by foliage application, plastic box (symbol g); details: 320 g/ha, 3 weeks after application
Procedure, shortened: (§1)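 Greenhouse culture at 25° C. to 30° C. followed spot-like sowing into sterilized diluvial soil, with seed covered by roughly 1.5 cm of soil.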

[1] = tested on: Echinochloa crus-galli var. crus-galli; experiment: Test Example 3: herbicidal effect by foliage application, Wagner pot (symbol H); details: application herbicide amount 320 g/ha
Procedure, shortened: (§2)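 Scoring took place 3 weeks after application, using fixed criteria. Plants had been raised from seed for 14 days at 25 to 30 °C in submerged alluvial soil before a diluted emulsion of the test compound was sprayed uniformly on the leaves.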

Cyperus difformis = experiment: Test Example 3: herbicidal effect by foliage application, Wagner pot (symbol E); details: application herbicide amount 320 g/ha
Procedure, shortened: as §2

Stellaria media [2] = experiment: Test Example 4: herbicidal effect by soil treatment (symbol P); details: application herbicide amount 320 g/ha
Procedure, shortened: (§3)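 Seeds were sown in sterilized diluvial soil, covered with about 1.5 cm of soil, and the soil surface was sprayed with a water-diluted emulsion of the compound at a predetermined rate. Plants grew in a greenhouse at 25° C. to 30° C.; effects were scored visually 3 weeks after application.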

corn = experiment: Test Example 4: effect on crop by soil treatment (symbol c); details: application herbicide amount 320 g/ha
Procedure, shortened: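 Steps: fill box with sterilized diluvial soil; sow seed spot-like; cover with ~1.5 cm soil; grow in greenhouse (25° C. to 30° C.).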

Monochoria vaginalis = experiment: Test Example 2: herbicidal activity, application during weed generation in submerged conditions (symbol C); details: Table 23; application herbicide amount 320 g/ha; grade 0-5 by criteria of Test Example 1
Procedure, shortened: (§4)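 Read-out: herbicidal effect on each species rated on a visual scale 3 weeks after treatment. Plants were raised together from seed in flooded alluvial soil (4 cm water) at 25° C. to 30° C. and treated at one to two leaves by water-surface application of diluted emulsion.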

Veronica persica = experiment: Test Example 4: herbicidal effect by soil treatment (symbol R); details: application herbicide amount 320 g/ha
Procedure, shortened: as §3

wheat = experiment: Test Example 5: effect on crop by foliage application, plastic box (symbol e); details: 320 g/ha, 3 weeks after application
Procedure, shortened: as §1

Abutilon theophrasti = experiment: Test Example 4: herbicidal effect by soil treatment (symbol M); details: application herbicide amount 320 g/ha
Procedure, shortened: as §3

Setaria viridis = experiment: Test Example 4: herbicidal effect by soil treatment (symbol G); details: application herbicide amount 320 g/ha
Procedure, shortened: as §3

Stellaria media [3] = experiment: Test Example 5: herbicidal effect by foliage application, plastic box (symbol P); details: 320 g/ha, 3 weeks after application
Procedure, shortened: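 After sowing into sterilized diluvial soil and growing two weeks under glass at 25° C. to 30° C., seedlings receive a uniform foliar spray of diluted emulsion. Damage is judged visually three weeks on.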

Alopecurus myosuroides = experiment: Test Example 4: herbicidal effect by soil treatment (symbol J); details: application herbicide amount 320 g/ha
Procedure, shortened: as §3

Digitaria ciliaris = experiment: Test Example 4: herbicidal effect by soil treatment (symbol F); details: application herbicide amount 320 g/ha
Procedure, shortened: as §3

[4] = tested on: Echinochloa oryzacola Vasing.; experiment: Test Example 2: herbicidal activity, application during weed generation in submerged conditions (symbol A); details: Table 23; application herbicide amount 320 g/ha; grade 0-5 by criteria of Test Example 1
Procedure, shortened: as §4

Leptochloa chinensis = experiment: Test Example 3: herbicidal effect by foliage application, Wagner pot (symbol D); details: application herbicide amount 320 g/ha
Procedure, shortened: as §2

| SMILES | g: rapeseed, effect on crop (criteria of Test Example 1) (rapeseed) | herbicidal effect on H (Echinochloa crus-galli var. crus-galli), grade 0-5 [1] | herbicidal effect on E, grade 0-5 (Cyperus difformis) | Herbicidal effect grade, P: Stellaria media (Stellaria media [2]) | Effect on crop grade, c: corn (corn) | Herbicidal effect grade, C: Monochoria vaginalis (Monochoria vaginalis) | Herbicidal effect grade, R: Veronica persica (Veronica persica) | e: wheat, effect on crop (criteria of Test Example 1) (wheat) | Herbicidal effect grade, M: Abutilon theophrasti (Abutilon theophrasti) | Herbicidal effect grade, G: Setaria viridis (Setaria viridis) | P: Stellaria media, herbicidal effect (criteria of Test Example 1) (Stellaria media [3]) | Herbicidal effect grade, J: Alopecurus myosuroides (Alopecurus myosuroides) | Herbicidal effect grade, F: Digitaria ciliaris (Digitaria ciliaris) | Herbicidal effect grade, A: Echinochloa oryzacola Vasing. [4] | herbicidal effect on D (Leptochloa chinensis), grade 0-5 (Leptochloa chinensis) |
| --- | --- | --- | --- | --- | --- | --- | --- | --- | --- | --- | --- | --- | --- | --- | --- |
| CC(=O)CC1CC(O)=C(c2c(C)cc(-c3ccc(C)cc3)cc2C)C1=O (stereo not drawn) [7-007] | 0 (Herbicidal ratio of 5% or lower (almost no effect)) | 5 (Herbicidal ratio of 90% or more (almost completely withered)) | 4 (Herbicidal ratio of 70% or higher and lower than 90%) | 0 (Herbicidal ratio of 5% or lower (almost no effect)) | 3 (Herbicidal ratio of 40% or higher and lower than 70%) | 3 (Herbicidal ratio of 40% or higher and lower than 70%) | 0 (Herbicidal ratio of 5% or lower (almost no effect)) | 2 (Herbicidal ratio of 20% or higher and lower than 40%) | 0 (Herbicidal ratio of 5% or lower (almost no effect)) | 4 (Herbicidal ratio of 70% or higher and lower than 90%) | 0 (Herbicidal ratio of 5% or lower (almost no effect)) | 5 (Herbicidal ratio of 90% or more (almost completely withered)) | 4 (Herbicidal ratio of 70% or higher and lower than 90%) | 5 (Herbicidal ratio of 90% or more (almost completely withered)) | 5 (Herbicidal ratio of 90% or more (almost completely withered)) |
| CC(=O)CC1CC(O)=C(c2c(C)cc(-c3ccc(Cl)cc3)cc2C)C1=O (stereo not drawn) [7-008] | 3 (Herbicidal ratio of 40% or higher and lower than 70%) | 5 (Herbicidal ratio of 90% or more (almost completely withered)) | 5 (Herbicidal ratio of 90% or more (almost completely withered)) | 0 (Herbicidal ratio of 5% or lower (almost no effect)) | 4 (Herbicidal ratio of 70% or higher and lower than 90%) | 0 (Herbicidal ratio of 5% or lower (almost no effect)) | 0 (Herbicidal ratio of 5% or lower (almost no effect)) | 4 (Herbicidal ratio of 70% or higher and lower than 90%) | 0 (Herbicidal ratio of 5% or lower (almost no effect)) | 5 (Herbicidal ratio of 90% or more (almost completely withered)) | 1 (Herbicidal ratio of 5% or higher and lower than 20%) | 5 (Herbicidal ratio of 90% or more (almost completely withered)) | 5 (Herbicidal ratio of 90% or more (almost completely withered)) | 4 (Herbicidal ratio of 70% or higher and lower than 90%) | 5 (Herbicidal ratio of 90% or more (almost completely withered)) |
| CC#Cc1cc(C)c(C2=C(O)CC(CC(C)=O)C2=O)c(C)c1 (stereo not drawn) [7-010] | 4 (Herbicidal ratio of 70% or higher and lower than 90%) | 5 (Herbicidal ratio of 90% or more (almost completely withered)) | 5 (Herbicidal ratio of 90% or more (almost completely withered)) | 0 (Herbicidal ratio of 5% or lower (almost no effect)) | 5 (Herbicidal ratio of 90% or more (almost completely withered)) | 1 (Herbicidal ratio of 5% or higher and lower than 20%) | 3 (Herbicidal ratio of 40% or higher and lower than 70%) | 5 (Herbicidal ratio of 90% or more (almost completely withered)) | 4 (Herbicidal ratio of 70% or higher and lower than 90%) | 5 (Herbicidal ratio of 90% or more (almost completely withered)) | 0 (Herbicidal ratio of 5% or lower (almost no effect)) | 5 (Herbicidal ratio of 90% or more (almost completely withered)) | 5 (Herbicidal ratio of 90% or more (almost completely withered)) | 5 (Herbicidal ratio of 90% or more (almost completely withered)) | 5 (Herbicidal ratio of 90% or more (almost completely withered)) |
| CC(=O)CC1CC(O)=C(c2c(C)cc(C)cc2Br)C1=O (stereo not drawn) [7-011] | 4 (Herbicidal ratio of 70% or higher and lower than 90%) | 5 (Herbicidal ratio of 90% or more (almost completely withered)) | 5 (Herbicidal ratio of 90% or more (almost completely withered)) | 0 (Herbicidal ratio of 5% or lower (almost no effect)) | 3 (Herbicidal ratio of 40% or higher and lower than 70%) | 0 (Herbicidal ratio of 5% or lower (almost no effect)) | 0 (Herbicidal ratio of 5% or lower (almost no effect)) | 0 (Herbicidal ratio of 5% or lower (almost no effect)) | 0 (Herbicidal ratio of 5% or lower (almost no effect)) | 0 (Herbicidal ratio of 5% or lower (almost no effect)) | 3 (Herbicidal ratio of 40% or higher and lower than 70%) | 3 (Herbicidal ratio of 40% or higher and lower than 70%) | 5 (Herbicidal ratio of 90% or more (almost completely withered)) | 3 (Herbicidal ratio of 40% or higher and lower than 70%) | 4 (Herbicidal ratio of 70% or higher and lower than 90%) |
| CC(=O)CC1CC(O)=C(c2c(C)cc(-c3ccccn3)cc2C)C1=O (stereo not drawn) [7-012] | 3 (Herbicidal ratio of 40% or higher and lower than 70%) | 5 (Herbicidal ratio of 90% or more (almost completely withered)) | 4 (Herbicidal ratio of 70% or higher and lower than 90%) | 0 (Herbicidal ratio of 5% or lower (almost no effect)) | 0 (Herbicidal ratio of 5% or lower (almost no effect)) | 0 (Herbicidal ratio of 5% or lower (almost no effect)) | 0 (Herbicidal ratio of 5% or lower (almost no effect)) | 1 (Herbicidal ratio of 5% or higher and lower than 20%) | 0 (Herbicidal ratio of 5% or lower (almost no effect)) | 5 (Herbicidal ratio of 90% or more (almost completely withered)) | 3 (Herbicidal ratio of 40% or higher and lower than 70%) | 2 (Herbicidal ratio of 20% or higher and lower than 40%) | 5 (Herbicidal ratio of 90% or more (almost completely withered)) | 3 (Herbicidal ratio of 40% or higher and lower than 70%) | 5 (Herbicidal ratio of 90% or more (almost completely withered)) |
